Bases are written 5' to 3'; sugars and linkages follow in the same order, as letters with counts (s phosphorothioate, o phosphodiester; PS: all linkages phosphorothioate). The collection does not say whether C is 5-methylated. l = locked nucleic acid (LNA); d = 2'-deoxy (DNA)

The target of this data set is Tau. As to the kind of experiment: rat primary cortical neurons, FLIPR, 25 uM ASO.
“CAGATTTTACTTCCACCT (sugars l2 d14 l2, PS)”: the calcium oscillation score was 44.7 % of control.
In the case of “CAGCACACAGGCAGCCACTG (sugars l3 d14 l3, PS)”, the calcium oscillation score was 23.8 % of control.
Under “CAGCATTTCCATTTCATC (sugars l2 d13 l3, PS)” stands 52.7 % of control; under CAGCCACTGTTGCCAC (sugars l2 d12 l2, PS), 51.2 % of control; under “CAGCCATTTTCCATATA (sugars l3 d12 l2, PS)”, 47.6 % of control.
For the sequence “CAGCCTACTTTATTCCC (sugars l2 d13 l2, PS)”, the calcium oscillation score is 79.2 % of control.
For the sequence “CAGCCTACTTTATTCCCT (sugars l2 d14 l2, PS)”, the calcium oscillation score was 82.2 % of control.
Under CAGCGTGATCTTCCAT (sugars l3 d10 l3, PS) stands 13.4 % of control; under “CAGCTAAGACCCTCAGGTTT (sugars l3 d14 l3, PS)”, 38.5 % of control; under CAGCTAGCGTGGCGAG (sugars l3 d10 l3, PS), 0 % of control.
Under “CAGCTAGTGGTGCCACCTGA (sugars l3 d14 l3, PS)” stands 16.5 % of control.
Under CAGCTATACTATTTCA (sugars l4 d10 l2, PS) stands 60.2 % of control; under “CAGCTCTTCCATAAGCAGGG (sugars l3 d14 l3, PS)”, 60.6 % of control.
As for CAGCTTCGTCTTCCAG (sugars l3 d10 l3, PS), the calcium oscillation score is 75.9 % of control.
In the case of “CAGCTTGTGGGTTTCAATCT (sugars l3 d14 l3, PS)” it was 0 % of control; in that of CAGGAGTTGTAAGC (sugars l3 d8 l3, PS), 77.5 % of control; in that of CAGGCGCGAGCAGCGG (sugars l3 d10 l3, PS), 49.5 % of control.
For “CAGGGACCCAATCTTCGACT (sugars l3 d14 l3, PS)”, the calcium oscillation score was 9.04 % of control.
In the case of “CAGGGACGTGGGTGATATTG (sugars l3 d14 l3, PS)” it was 0 % of control; in that of “CAGGGAGGCAGACACCTCGT (sugars l3 d14 l3, PS)”, 50.9 % of control.
Turning to “CAGGTATCCAGCCATATTTC (sugars l3 d14 l3, PS)”, the calcium oscillation score was 27.5 % of control.
For the sequence “CAGGTCTGGCATGGGCACGG (sugars l3 d14 l3, PS)”, the calcium oscillation score is 0 % of control.
In the case of “CAGGTTAAGTGATTAACCAA (sugars l3 d14 l3, PS)” it was 17.4 % of control; in that of CAGTAACATCCATTTC (sugars l4 d8 l4, PS), 87.6 % of control.
Consider “CAGTAACATCCATTTCT (sugars l4 d11 l2, PS)”, for which the calcium oscillation score is 86.2 % of control.
CAGTCCCGTCTTTGCT (sugars l3 d10 l3, PS): the calcium oscillation score is 0 % of control.
In the case of CAGTCTTTATTAACAC (sugars l4 d8 l4, PS) it was 54 % of control; in that of “CAGTCTTTATTAACACT (sugars l3 d10 l4, PS)”, 50.7 % of control; in that of “CAGTTACCATCATACAT (sugars l3 d10 l4, PS)”, 89 % of control.
“CATAAATGACTATACTTATT (sugars l3 d14 l3, PS)”: the calcium oscillation score was 94.7 % of control.
For “CATAATCCTACCACCAG (sugars l2 d12 l3, PS)”, the calcium oscillation score was 61.3 % of control.
Consider “CATAGCACTTACTACTT (sugars l4 d10 l3, PS)”, for which the calcium oscillation score is 84.1 % of control.
Under CATAGTCACTCTGGTG (sugars l3 d10 l3, PS) stands 1.9 % of control; under “CATATTCTTCCCTTAATA (sugars l3 d13 l2, PS)”, 81.1 % of control; under “CATATTCTTCCCTTAATAA (sugars l3 d13 l3, PS)”, 68 % of control.
With CATCAAATCCATGCAT (sugars l4 d8 l4, PS), the calcium oscillation score was 76.7 % of control.
“CATCAACACCTTTTAATTCA (sugars l2 d14 l4, PS)”: the calcium oscillation score is 98.4 % of control.
As for “CATCAATTTGGAAAGATGAA (sugars l3 d14 l3, PS)”, the calcium oscillation score was 62.5 % of control.
“CATCACCAAGTCCCAAA (sugars l2 d11 l4, PS)”: the calcium oscillation score was 81 % of control.
Under CATCACTTCGAACTCC (sugars l3 d10 l3, PS) stands ≥ 200 % of control.
For “CATCAGCCTTCATCACA (sugars l4 d11 l2, PS)”, the calcium oscillation score is 91.8 % of control.
In the case of “CATCAGTCTTATCTCCC (sugars l2 d13 l2, PS)” it was 54.7 % of control; in that of “CATCCACTTAGACACTC (sugars l4 d11 l2, PS)”, 43.8 % of control.
In the case of “CATCCATTTTCTGACTC (sugars l4 d11 l2, PS)” it was 52 % of control.
Turning to “CATCCATTTTCTGACTCT (sugars l4 d12 l2, PS)”, the calcium oscillation score is 42.4 % of control.
In the case of “CATCCTAAGTCAACCAC (sugars l3 d11 l3, PS)” it was 72.7 % of control; in that of CATCGCTTCCAGTC (sugars l3 d8 l3, PS), 116 % of control.
Consider CATCGCTTCCAGTCCC (sugars l3 d10 l3, PS), for which the calcium oscillation score is 39.1 % of control.
Under “CATCTAAACACCTCAATCCA (sugars l2 d16 l2, PS)” stands 72.6 % of control; under “CATCTACTTTCTGTCACC (sugars l2 d14 l2, PS)”, 63.4 % of control.
Turning to “CATCTCTCTAGACATCT (sugars l4 d11 l2, PS)”, the calcium oscillation score is 79.4 % of control.
Take “CATCTCTCTAGACATCTC (sugars l2 d13 l3, PS)”: the calcium oscillation score is 64.6 % of control.
Regarding “CATCTTAATTCATTTAATTC (sugars l4 d12 l4, PS)”, the calcium oscillation score is 84.1 % of control.
In the case of “CATCTTCCTTTAGTTTT (sugars l4 d10 l3, PS)” it was 50.9 % of control; in that of “CATGACATTTTAAACCC (sugars l3 d10 l4, PS)”, 69.2 % of control; in that of “CATGAGCACTAACTCTAAGT (sugars l3 d14 l3, PS)”, 47.6 % of control.
Turning to CATGATCTTAGGCT (sugars l3 d8 l3, PS), the calcium oscillation score was 25.3 % of control.
As for CATGATCTTAGGCTG (sugars l3 d9 l3, PS), the calcium oscillation score was 46 % of control.
With CATGATCTTAGGCTGG (sugars l3 d10 l3, PS), the calcium oscillation score is 7.83 % of control.
Under “CATGATTAATTACACCC (sugars l3 d11 l3, PS)” stands 35.5 % of control; under CATGATTGTGGGCTT (sugars l3 d9 l3, PS), 0 % of control.
Turning to CATGATTGTGGGCTTA (sugars l3 d10 l3, PS), the calcium oscillation score is 0 % of control.
Under “CATGCAGTTTATTCCTGGCA (sugars l3 d14 l3, PS)” stands 6.04 % of control; under CATGCTTACACACCAC (sugars l2 d10 l4, PS), 82.9 % of control.
For “CATGCTTACACACCACAC (sugars l2 d13 l3, PS)”, the calcium oscillation score is 73.5 % of control.
Turning to CATGTCGATGCTGC (sugars l3 d8 l3, PS), the calcium oscillation score is 30.5 % of control.
Turning to CATGTCGATGCTGCC (sugars l3 d9 l3, PS), the calcium oscillation score is 89.5 % of control.
In the case of CATGTCGATGCTGCCG (sugars l3 d10 l3, PS) it was 67.3 % of control.
Under “CATTAACCCTTGATCATATT (sugars l3 d14 l3, PS)” stands 36.3 % of control.
Under “CATTATCATCCATTCTG (sugars l3 d10 l4, PS)” stands 47.3 % of control; under “CATTATTCTTTTTTTTTCCA (sugars l4 d14 l2, PS)”, 43.3 % of control.
Take “CATTCCCTCCAGAACCATCA (sugars l3 d14 l3, PS)”: the calcium oscillation score was 34.2 % of control.
In the case of CATTCTATACTTCAGA (sugars l3 d9 l4, PS) it was 79 % of control.
Under CATTGGAACTGAGCAC (sugars l3 d10 l3, PS) stands 8.33 % of control.
In the case of “CATTTACCAATTATCTTTAA (sugars l4 d12 l4, PS)” it was 72 % of control.
As to “CATTTCTGGAAGGTTCTTTC (sugars l3 d14 l3, PS)”, the calcium oscillation score was 23.9 % of control.
Turning to CATTTTACTAAAACGC (sugars l4 d8 l4, PS), the calcium oscillation score is 91.6 % of control.
Take CATTTTCTGACTCTAAT (sugars l4 d9 l4, PS): the calcium oscillation score was 57.8 % of control.
In the case of CATTTTTGTCTCATTAT (sugars l4 d9 l4, PS) it was 51 % of control; in that of “CATTTTTTATTCATAACTTT (sugars l4 d12 l4, PS)”, 59.4 % of control.
Under “CCAAAACATTCTCACCAAAC (sugars l3 d15 l2, PS)” stands 68.1 % of control; under “CCAAACTTTTACTCTGA (sugars l4 d10 l3, PS)”, 44.5 % of control; under “CCAAATTCCTCATAATCCA (sugars l2 d15 l2, PS)”, 75 % of control.
Under “CCAAATTCCTCATAATCCAA (sugars l2 d15 l3, PS)” stands 73.4 % of control; under “CCAACTCAACATTACCCTT (sugars l2 d15 l2, PS)”, 66.3 % of control.
Regarding “CCAACTCTTTGAACACC (sugars l3 d12 l2, PS)”, the calcium oscillation score was 75.5 % of control.
Under “CCAACTTTCATCTACTTTTC (sugars l2 d16 l2, PS)” stands 99.7 % of control; under CCAAGAGGCACAAGTC (sugars l3 d10 l3, PS), 74.3 % of control.
In the case of CCAATACTAGATCTAT (sugars l4 d8 l4, PS) it was 64.7 % of control.
Consider “CCAATCAATTATATTATAT (sugars l4 d11 l4, PS)”, for which the calcium oscillation score is 60.8 % of control.
Under “CCAATCTTCGACTGGACTCT (sugars l3 d14 l3, PS)” stands 22.6 % of control.
Take CCAATTAACCGAACTG (sugars l3 d10 l3, PS): the calcium oscillation score was 55.2 % of control.
Under “CCAATTAACCGAACTGCGAG (sugars l3 d14 l3, PS)” stands 41.4 % of control; under “CCAATTATCTTTAAATTCTA (sugars l4 d13 l3, PS)”, 70.7 % of control.
Under CCAATTGTCACATTAA (sugars l4 d8 l4, PS) stands 63.1 % of control.
Under “CCACACTTGGAGGTCACCTT (sugars l3 d14 l3, PS)” stands 4.52 % of control.

For the origin of these results see the OligoGym collection.
